Laboratory results published in patent US20230099441A1, “HETEROCYCLIC COMPOUND, APPLICATION THEREOF, AND COMPOSITION CONTAINING SAME” (GenEros Biopharma Ltd., priority 2019, published 2023).

Key:
[1] = tested on: STAT5 Y694 phosphorylation; assay: Protein electrophoresis and blotting of STAT5 Y694 phosphorylation in Jurkat cells stimulated with human interferon beta; type: cell-based; conditions: observed pSTAT5 bands at 10 μM and 100 μM
Summary of the method: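 Serum-free Jurkat cells pretreated with compound 1 h, then stimulated with 20 ng/ml human interferon beta for 30 min at 37° C. pSTAT5 measured by western blot with chemiluminescence, normalized to GAPDH and expressed as percent of DMSO control.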

[2] = tested on: STAT5 Y694 phosphorylation; assay: HTRF experiment: STAT5 Y694 phosphorylation in Hela cells stimulated with human interferon beta; type: cell-based; conditions: 2 hours pretreatment, 10 nM human interferon beta 30 minutes
Protocol: Example of Effect 3: HTRF Experiment
Human Interferon 3 (IFN-0) (GenScript, Cat #P01574), STAT5 Y694 phosphorylation detection kit (STAT5 phospho-Y694 kit) (Cisbio; Cat #64AT5PEG).
Hela cells (ATCC American Standard Culture Center, CCL-2) were cultured in a 96-well plate at a density of 3×10^4 cells/well with DMEM medium containing 5% fetal bovine serum and maintained at 37° C. in a humidified incubator with 5% carbon dioxide overnight. On the second day, the original DMEM medium in the 96-well plate was sucked dry, and an equal volume of medium containing different concentrations of compounds (the mother liquor of the compound prepared by dimethyl sulfoxide was diluted in the medium at the required concentration) was added for pretreatment for 2 hours, and then it was placed in an incubator at 37° C. Then human interferon beta with a final concentration of 10 nM was added to stimulate, and it was gently shaken to mix well and then placed in an incubator at 37° C. for 30 minutes.
The medium was removed, an appropriate volume of PBS was added to wash, and then it was sucked dry. Then 40 microliters of 1× Lysis Buffer was added to each well and it was stood for 30 minutes at room temperature (1 ml 1× lysate preparation: 740 μl ddH2O was added to 250 μl 4× lysate and 10 μl Blocking reagent and it was mixed thoroughly). After 30 minutes, the cells were repeatedly blown until the lysis solution was not viscous (avoiding blowing out bubbles) to achieve sufficient lysis.
After overnight incubation, the signals of 665 nm and 620 nm were detected in a multifunctional microplate reader. The calculation formula for the detection of STAT5 Y694 phosphorylation is: Ratio=[(signal 665 nm)/(signal 620 nm)]×10^4. Treatment with dimethyl sulfoxide alone was the baseline control (Ratiobase), and the human interferon β stimulation without addition of the compound was the STAT5 Y694 full phosphorylation activation control (Ratiostimulation), the inhibition rate of STAT5 Y694 phosphorylation of different samples was normalized: Inhibition rate=[1−(RatioExperiment−Ratiobase)/(Ratiostimulation−Ratiobase)]*100.

Structure (SMILES)	Example of Effect 1: Inhibiting Ability (Protein Electrophoresis and Blotting) [1]	Example of Effect 3: Inhibiting Ratio@10 μM (HTRF Experiment) [2]
O=C(Nc1ccc(C(F)(F)F)cc1)N1CCC(n2c(=O)[nH]c3cccc(C(F)(F)F)c32)CC1 [GEN1-149, 4-(2-oxo-7-(trifluoromethyl)-2,3-dihydro-1H-benzo[d]imidazol-1-yl)-N-(4-(trifluoromethyl)phenyl)piperidin-1-carboxamide]	+	0.49%
N#Cc1cccc2[nH]c(=O)n(C3CCN(C(=O)Cc4ccc5ncccc5c4)CC3)c12 [GEN1-151, 2-oxo-3-(1-(2-(quinolin-6-yl)acetyl)piperidin-4-yl)-2,3-dihydro-1H-benzo[d]imidazol-4-carbonitrile]	+	39.02%
O=C(Cc1ccc(C(F)(F)F)cc1)N1CCC(n2c(=O)[nH]c3c(N4CCOCC4)cccc32)CC1 [GEN1-154, 4-morpholino-1-(1-(2-(4-(trifluoromethyl)phenyl)acetyl)piperidin-4-yl)-1H-benzo[d]imidazol-2(3H)-one]	−	6.10%
O=C(Cc1ccc(Cl)cc1)N1CCC(n2c(=O)[nH]c3cccc(C(F)(F)F)c32)CC1 [GEN1-156, 1-(1-(2-(4-chlorophenyl)acetyl)piperidin-4-yl)-7-(trifluoromethyl)-1H-benzo[d]imidazol-2(3H)-one]	+	47.04%
O=C(Cc1ccc(Br)cc1)N1CCC(n2c(=O)[nH]c3cccc(C(F)(F)F)c32)CC1 [GEN1-157, 1-(1-(2-(4-bromophenyl)acetyl)piperidin-4-yl)-7-(trifluoromethyl)-1H-benzo[d]imidazol-2(3H)-one]	+	28.83%
CC(C)(C(=O)N1CCC(n2c(=O)[nH]c3cccc(C(F)(F)F)c32)CC1)c1ccc(C(F)(F)F)cc1 [GEN1-158, 1-(1-(2-methyl-2-(4-(trifluoromethyl)phenyl)propionyl)piperidin-4-yl)-7-(trifluoromethyl)-1H-benzo[d]imidazol-2(3H)-one]	−	0.16%
O=C(Cc1ccc2c(c1)OCCO2)N1CCC(n2c(=O)[nH]c3cccc(C(F)(F)F)c32)CC1 [GEN1-159, 1-(1-(2-(2,3-dihydrobenzo[b][1,4]dioxin-6-yl)acetyl)piperidin-4-yl)-7-(trifluoromethyl)-1,3-dihydro-2H-benzo[d]imidazol-2-one]	+	22.99%
O=C(C(=O)N1CCC(n2c(=O)[nH]c3cccc(C(F)(F)F)c32)CC1)c1ccc(C(F)(F)F)cc1 [GEN1-160, 1-(4-(2-oxo-7-(trifluoromethyl)-2,3-dihydro-1H-benzo[d]imidazol-1-yl)piperidin-1-yl)-2-(4-(trifluoromethyl)phenyl)1,2-dione]	+	10.27%
O=C(Cc1ccc(C(F)(F)F)cc1)N1CCC(N2Cc3ccccc3NC2=O)CC1 [GEN1-161, 3-(1-(2-(4-(trifluoromethyl)phenyl)acetyl)piperidin-4-yl)-3,4-dihydroquinazolin-2(1H)-one]	+	1.38%
O=C(Cc1ccc(C(F)(F)F)cc1)N1CCC(N2C(=O)NCc3ccccc32)CC1 [GEN1-162, 1-(1-(2-(4-(trifluoromethyl)phenyl)acetyl)piperidin-4-yl)-3,4-dihydroquinazolin-2(1H)-one]	+	22.04%
Cc1[nH]c(=O)n(C2CCN(C(=O)Cc3ccc(C(F)(F)F)cc3)CC2)c1-c1ccccc1 [GEN1-166, 4-methyl-5-phenyl-1-(1-(2-(4-(trifluoromethyl)phenyl)acetyl)piperidin-4-yl)-1H-imidazole-2(3H)-one]	+	15.16%
O=C(Cc1ccc(C(F)(F)F)cc1)N1CCC2(CC1)C(=O)Nc1ccccc12 [GEN1-167, 1′-(2-(4-(trifluoromethyl)phenyl)acetyl)spiro[indoline-3,4′-piperidine]-2-one]	+	15.57%
COc1ccc(CC(=O)N2CCC(n3c(=O)[nH]c4cccc(C(F)(F)F)c43)CC2)cc1OC [GEN1-168, 1-(1-(2-(3,4-dimethoxyphenyl)acetyl)piperidin-4-yl)-7-(trifluoromethyl)-1,3-dihydro-2H-benzo[d]imidazol-2-one]	+	47.57%
O=C(Cc1c[nH]c2ccccc12)N1CCC(n2c(=O)[nH]c3cccc(C(F)(F)F)c32)CC1 [GEN1-169]	+	13.47%
CC(=O)/N=c1\[nH]c2cccc(C(F)(F)F)c2n1C1CCN(C(=O)Cc2ccc3ncccc3c2)CC1 [GEN1-171]	−	9.85%
O=C(/N=c1\[nH]c2cccc(C(F)(F)F)c2n1C1CCN(C(=O)Cc2ccc3ncccc3c2)CC1)c1ccccc1 [GEN1-172]	−	13.83%
O=C(Cc1ccc2ncccc2c1)N1CCCC(n2c(=O)[nH]c3cccc(C(F)(F)F)c32)CC1 (stereo not drawn) [GEN1-173, 1-(1-(2-(quinolin-6-yl)acetyl)azacycloheptane-4-yl)-7-(trifluoromethyl)-1,3-dihydro-2H-benzo[d]imidazol-2-one]	+	50.75%
O=C(Cc1ccc(C(F)(F)F)cc1)N1CCC(Cn2c(=O)[nH]c3cccc(C(F)(F)F)c32)CC1 [GEN1-174, 7-(trifluoromethyl)-1-((1-(2-(4-(trifluoromethyl)phenyl)acetyl)piperidin-4-yl)methyl)-1H-benzo[d]imidazol-2(3H)-one]	+	39.65%
